Measured values: ChEMBL document CHEMBL1201862, “PubChem BioAssay data set” (2004)
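Growth conditions: 96-well plates. Treatment: test compound, 48 hours, 5 concentrations. Analysis: linear interpolation between bracketing concentrations; unreached endpoints set to highest concentration. Abbreviation: GI50, concentration required for 50% inhibition of growth.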 Calls of active or inactive are those of the source. No stated cut-off is given here; in the data, active = GI50 up to about 1.1 µM and inactive = higher.

What was measured:
Assay in all cases: DTP human tumour cell line panel, 48 h
NCI-H226 = system: NCI-H226
RPMI-8226 = system: RPMI-8226
HT-29 = system: HT-29
TK-10 = system: TK-10
UACC-257 = system: UACC-257
SK-MEL-28 = system: SK-MEL-28
SF-268 = system: SF-268
SR = system: SR
M19-MEL = system: M19-MEL
SNB-75 = system: SNB-75
A549 = system: A549
KM12 = system: KM12
UACC-62 = system: UACC-62
SK-OV-3 = system: SK-OV-3
SK-MEL-2 = system: SK-MEL-2
HL-60 = system: HL-60
MDA-MB-231 = system: MDA-MB-231
T47D = system: T47D
DU-145 = system: DU-145
NCI/ADR-RES = system: NCI/ADR-RES

Row | Structure (SMILES) | GI50 (NCI-H226) | GI50 (RPMI-8226) | GI50 (HT-29) | GI50 (TK-10) | GI50 (UACC-257) | GI50 (SK-MEL-28) | GI50 (SF-268) | GI50 (SR) | GI50 (M19-MEL) | GI50 (SNB-75) | GI50 (A549) | GI50 (KM12) | GI50 (UACC-62) | GI50 (SK-OV-3) | GI50 (SK-MEL-2) | GI50 (HL-60) | GI50 (MDA-MB-231) | GI50 (T47D) | GI50 (DU-145) | GI50 (NCI/ADR-RES)
1 | CCCOc1ccc(/C(Cl)=C(\C=O)c2ccc(OC)c(OC)c2)cc1OCCC | 13.2 µM (inactive) | 2.7 µM (inactive) | 5.2 µM (inactive) | 28.1 µM (inactive) | 11 µM (inactive) | 7.59 µM (inactive) | 3.73 µM (inactive) | 2.52 µM (inactive) | 10.5 µM (inactive) | 11.9 µM (inactive) | 5.43 µM (inactive) | 8.61 µM (inactive) | 3.52 µM (inactive) | 30.1 µM (inactive) | 11.6 µM (inactive) | 1.84 µM (inactive) |  |  |  | 
2 | COC1C(OC(=O)/C=C/C=C/C=C/C=C/C(=O)O)CCC2(CO2)C1C1(C)OC1CC=C(C)C (stereo unspecified) | 42.8 µM (inactive) | 20.1 µM (inactive) | 21.1 µM (inactive) | 57.9 µM (inactive) | 34 µM (inactive) | 18.2 µM (inactive) | 34.5 µM (inactive) | 20.6 µM (inactive) | 18.7 µM (inactive) | 25.3 µM (inactive) | 18.5 µM (inactive) | 12.4 µM (inactive) | 16.1 µM (inactive) | > 59.6 µM (inactive) | 5.01 µM (inactive) | 16.4 µM (inactive) | 21.3 µM (inactive) | 18.4 µM (inactive) | 35.2 µM (inactive) | > 63.8 µM (inactive)
3 | CC1=C(N2CC2)C(=O)C(C)=C(N2CC2)C1=O | 0.309 µM (active) | 0.201 µM (active) | 0.175 µM (active) | 0.289 µM (active) | 0.465 µM (active) | 0.356 µM (active) | 0.0834 µM (active) | 0.05 µM (active) | 0.229 µM (active) | 0.309 µM (active) | 0.112 µM (active) | 0.279 µM (active) | 0.0579 µM (active) | 0.31 µM (active) | 0.306 µM (active) | 0.0206 µM (active) | 4.01 µM (inactive) | 0.208 µM (active) | 0.0469 µM (active) | 0.0221 µM (active)
